Measured values reported in patent US20110039770A1, “INHIBITORS OF PROTEIN KINASE C ISOFORMS AND USES THEREOF” (PHARMAGAP INC., priority 2005, published 2011).
Read-outs that look alike come from different tables or passages of the source. Where a SMILES comes first, the peptide text is derived from it. The star is where a group is joined. PNA(A) = NCCN(CC(=O)*)C(=O)Cn1cnc2c(N)ncnc21

Experiments:
PKC-β = target: T1, PKC-β (Homo sapiens, UniProt P05771); test: Competition of PRE with PKC-β antibody binding, Protocol A, IMR-32 lysate
T1 construct: PRE 2 and PRE 3 in IMR-32 Neuroblastoma Cells: Protocol A; endogenous in cells; host or cells: IMR-32 human neuroblastoma cells
T1 sequence (P05771 whole entry): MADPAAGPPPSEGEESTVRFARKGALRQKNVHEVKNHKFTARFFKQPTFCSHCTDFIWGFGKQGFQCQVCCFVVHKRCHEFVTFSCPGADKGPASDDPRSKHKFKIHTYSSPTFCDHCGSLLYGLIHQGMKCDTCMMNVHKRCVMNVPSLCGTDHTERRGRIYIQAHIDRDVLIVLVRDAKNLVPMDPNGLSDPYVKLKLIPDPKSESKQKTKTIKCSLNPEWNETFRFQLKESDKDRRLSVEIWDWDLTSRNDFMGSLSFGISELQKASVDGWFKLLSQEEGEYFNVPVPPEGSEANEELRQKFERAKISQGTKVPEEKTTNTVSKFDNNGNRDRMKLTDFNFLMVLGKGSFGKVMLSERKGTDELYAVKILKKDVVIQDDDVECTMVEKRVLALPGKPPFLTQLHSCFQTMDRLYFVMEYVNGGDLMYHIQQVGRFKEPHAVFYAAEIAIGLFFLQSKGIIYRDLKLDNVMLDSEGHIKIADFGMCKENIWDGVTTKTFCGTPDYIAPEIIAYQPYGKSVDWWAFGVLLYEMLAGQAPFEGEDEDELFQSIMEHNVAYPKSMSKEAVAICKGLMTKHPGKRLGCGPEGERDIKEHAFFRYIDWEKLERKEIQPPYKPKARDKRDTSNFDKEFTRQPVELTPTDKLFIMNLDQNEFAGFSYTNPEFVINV
Experimental: (§1) Cell lysates from either IMR-32 (human neuroblastoma) cells or C6Cx43 cells (rat glioma transfected cells overexpressing connexin 43) were obtained using standard protocols and the proteins of the lysate were separated by SDS PAGE electrophoresis and electrotransferred onto a nitrocellulose membrane. The membrane was incubated for 30 minutes in blocking buffer (TBST) containing the test peptide at either 5× or 20× the concentrations of the primary antibody. A primary polyclonal antibody specific for PKC-α (Santa Cruz Biotechnology, Inc., CA) was then added (15 μg/ml) and the membrane incubated for a further 45 minutes. Finally, the primary antibody was detected with a secondary antibody conjugated to alkaline phosphatase using standard procedures. The intensity of the band corresponding to PKC-α was assessed by scanning and densitometry using the Gel-Pro software (Media Cybernetics) to obtain relative band intensities (average of 3 replicas). Control assays were conducted as described above except that blocking buffer without peptide was used.
Peptides PRE 1, PRE 2 and PRE 3 (see Table 4) were tested for their ability to interfere with the binding of a PKC-β-specific polyclonal antibody (Santa Cruz Biotechnology, Inc.) to PKC-β using the general protocol described in Example 1. […] It is worth noting in this regard that PKC-α and PKC-β belong to the same sub-group of PKCs (cPKCs).

PKC-α [1] = target: T2, PKC-α (Homo sapiens, UniProt P17252); test: Competition of PRE with PKC-α antibody binding on Western blot, Protocol A, IMR-32 lysate; parameters: endogenous PKC-α in (A) untreated human neuroblastoma (IMR-32) cells; endogenous in cells; host or cells: IMR-32 human neuroblastoma cells; details: IMR-32 cells
Experimental: The ability of the PRE 1, 2 and 3 (see Table 3 above) to interfere with the binding of a PKC-α-specific polyclonal antibody to PKC-α was determined using the following protocol.
as §1
The results are expressed as relative band intensity and as a percentage of the intensity of the corresponding band in the control assay (“Relative intensity (%)”). “% inhibition” relates to the percentage of the PKC-α band that is inaccessible to the antibody.

PKC-βII = PKC-βII (Homo sapiens, UniProt P05771); test: Competition of PRE with PKC-βII antibody binding, Protocol B, IMR-32; parameters: PKC-βII by PRE 3 and PRE 4 in IMR-32 Neuroblastoma; endogenous in cells; host or cells: IMR-32 human neuroblastoma cells; details: Protocol B (control 98.6)
Chain of PKC-βII (P05771 1-673 isoform P05771-2): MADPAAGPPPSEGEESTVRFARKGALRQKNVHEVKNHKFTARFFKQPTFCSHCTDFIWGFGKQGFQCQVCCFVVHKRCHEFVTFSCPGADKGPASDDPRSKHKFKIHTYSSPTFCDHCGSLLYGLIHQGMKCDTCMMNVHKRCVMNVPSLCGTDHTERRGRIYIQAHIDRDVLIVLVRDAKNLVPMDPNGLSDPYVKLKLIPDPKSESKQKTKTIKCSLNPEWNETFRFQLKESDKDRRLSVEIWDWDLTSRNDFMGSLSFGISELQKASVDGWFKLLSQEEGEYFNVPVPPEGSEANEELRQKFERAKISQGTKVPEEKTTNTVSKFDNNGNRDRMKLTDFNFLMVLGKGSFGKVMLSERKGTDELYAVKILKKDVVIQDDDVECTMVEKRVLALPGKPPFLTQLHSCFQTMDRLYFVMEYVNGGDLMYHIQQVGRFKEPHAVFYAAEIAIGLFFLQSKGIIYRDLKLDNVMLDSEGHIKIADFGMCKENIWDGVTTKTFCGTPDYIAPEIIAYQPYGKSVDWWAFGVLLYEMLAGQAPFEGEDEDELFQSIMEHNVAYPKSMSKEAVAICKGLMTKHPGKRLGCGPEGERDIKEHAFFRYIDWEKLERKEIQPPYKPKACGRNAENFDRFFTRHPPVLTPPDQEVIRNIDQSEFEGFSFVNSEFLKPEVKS
Experimental: The ability of the peptides PRE 2 and PRE 3 (see Table 4) to interfere with the binding of a PKC-α-specific polyclonal antibody (Santa Cruz Biotechnology, Inc.) to PKC-α was determined using a modified version of the protocol outlined above in which the test peptide was added directly to the cell extract prior to electrophoresis at a concentration of either 5× or 15× the concentration of the protein applied to each well of the gel for the Western blots (20 μg).
Peptides PRE 3 and PRE 4 (see Table 4) were tested for their ability to interfere with the binding of isoform-specific polyclonal antibodies (Santa Cruz Biotechnology, Inc.) to PKC-α, PKC-βI or PKC-βII using the general protocol described in Example 3.

PKC-α [2] = target: T2, PKC-α; test: Subcellular localisation of PKC-α in IMR-32 cells; type: cell-based; parameters: endogenous PKC-α in (A) untreated human neuroblastoma (IMR-32) cells; endogenous in cells; host or cells: IMR-32 human neuroblastoma cells; details: 10 mg/ml, pinocytic endocytosis
Experimental: Peptides PRE 3 or PRE 4 (10 mg/ml) were introduced into human neuroblastoma cells (IMR-32) by pinocytic endocytosis. The cells were fixed and stained with rabbit PKC-α primary antibody and anti-rabbit Alexa-488 or Alexa-800 secondary antibody.

[3] = test system: peripheral blood lymphocytes; test: Peripheral blood lymphocyte survival and blastogenic response to mitogens; type: cell-based; details: primary lymphocytes of pigs, mice and human
[4] = test system: IMR-32 human neuroblastoma cells; details: IMR-32
Experimental: The ability of compounds PKI 1, PKI 2 and PKI 3 to inhibit cancer cell proliferation was tested in vitro using the human neuroblastoma cell line IMR-32. Monolayer cell cultures were trypsinized and the test compound was added at the doses indicated in Table 24 and internalized by pinocytic endocytosis using Influx TM pinocytic cell-loading reagent, a kit from Molecular Probes (Eugene, Oreg.) following the manufacturer's recommendations. The indicated doses refer to the concentration in the loading medium, which was used on 1×10^6 cells in a 10 μl volume, i.e. contained 10 μg to 100 ug of test compound that provides […] per cell. […] The cells were treated on day 0 of the experiment. The cells loaded with test compound were cultured in 96 well plates (5,000 cells in 100 μl per well), and the proliferation was monitored over 3 consecutive days. The increase in cell population was quantified using a Hoechst reagent-based assay (modified from Rao and Otto, 1992, Analytical Biochem. 207:186-192) that measures the total DNA of the population. Fluorescence was measured using a Millipore CytoFluor 2350 plate reader (excitation at 360 nm and emission at 460 nm). The measurements were obtained as relative fluorescence intensity, a value that is directly correlated to the total number of cells. Data are expressed as a percentage of matching controls that were supplemented with culture medium alone.
The ability of the compound TIM 9 to inhibit cancer cell proliferation was tested in vitro using the human neuroblastoma cell line IMR-32 and following the general protocol described in Example 14.
The ability of the compound TIM 11 to inhibit IMR-32 cancer cell proliferation was tested in vitro following the general protocol described in Example 14.
The ability of the compound TIM 10 to inhibit cancer cell proliferation was tested in vitro using the human neuroblastoma IMR-32 cell line and following the general protocol described in Example 14.

Molecule: CC[C@H](C)[C@H](NC(=O)[C@H](CO)NC(=O)[C@@H](NC(=O)CNC(=O)[C@@H](NC(=O)[C@H](CC(C)C)NC(=O)[C@H](CC(N)=O)NC(=O)[C@H](CCC(N)=O)NC(=O)[C@H](C)NC(=O)[C@H](CC(=O)O)NC(=O)CNC(=O)CNC(=O)[C@H](CCCCN)NC(=O)[C@@H](NC(=O)[C@H](CCC(=O)O)NC(=O)[C@H](CCC(N)=O)NC(=O)[C@@H](NC(=O)CNC(=O)[C@H](CCCCN)NC(=O)[C@H](C)NC(C)=O)[C@@H](C)CC)C(C)C)[C@@H](C)CC)[C@@H](C)CC)C(N)=O [PRE 3] (Ac-AKGIQEVKGGDAQNLIGISI-NH2)
- Band Intensity (PKC-β; 75 μg): 1.900
- Inhibition (%) (PKC-β; 75 μg): 0.0%
- remaining activity at 0.075 mg (PKC-β; 75 μg, read-out: Relative Intensity (%)): 102%
- Band Intensity (PKC-β; 300 μg): 1.900
- Inhibition (%) (PKC-β; 300 μg): 0.0%
- remaining activity at 0.3 mg (PKC-β; 300 μg, read-out: Relative Intensity (%)): 102%
- Band Intensity (PKC-β; 600 μg): 1.847
- Inhibition (%) (PKC-β; 600 μg): 0.0%
- remaining activity at 0.6 mg (PKC-β; 600 μg, read-out: Relative Intensity (%)): 99.6%
- Band Intensity (PKC-α [1]; 75 μg): 0.889
- Band Intensity (PKC-α [1]; 300 μg): 0.922
- Band Intensity (PKC-βII; 100 μg): 0.0
- Band Intensity (PKC-βII; 200 μg): 0.0
- Band Intensity (PKC-βII; 300 μg): 0.0
- effect on subcellular localisation of PKC-α (PKC-α [2]): does not alter the subcellular localisation of PKC-α

Molecule: CC[C@H](C)[C@H](NC(=O)[C@H](CO)NC(=O)[C@@H](NC(=O)CNC(=O)[C@@H](NC(=O)[C@H](CC(C)C)NC(=O)[C@H](CC(N)=O)NC(=O)[C@H](CCC(N)=O)NC(=O)[C@H](C)NC(=O)[C@H](CC(=O)O)NC(=O)[C@H](CCCCN)NC(C)=O)[C@@H](C)CC)[C@@H](C)CC)C(N)=O [PRE 4, Ac-KDAQNLIGISI-NH2] (Ac-KDAQNLIGISI-NH2)
- Band Intensity (PKC-βII; 100 μg): 69.58
- Band Intensity (PKC-βII; 200 μg): 0.0
- Band Intensity (PKC-βII; 300 μg): 0.0
- effect on subcellular localisation of PKC-α (PKC-α [2]): prevented translocation of PKC-α to the membrane

Molecule: CC[C@H](C)[C@H](NC(=O)[C@H](CO)NC(=O)[C@@H](NC(=O)CNC(=O)[C@@H](NC(=O)[C@H](CC(C)C)NC(=O)[C@H](CC(N)=O)NC(=O)[C@H](CCC(N)=O)NC(=O)[C@H](C)NC(=O)[C@H](CC(=O)O)NC(=O)[C@H](CCCCN)NC(=O)CNC(=O)CNC(=O)CNC(=O)CNC(=O)CNC(=O)CNC(=O)CNC(=O)[C@H](CC(C)C)NC(=O)[C@H](CCCNC(=N)N)NC(=O)[C@H](Cc1ccccc1)NC(=O)[C@H](CCCCNC(=O)CN(CCN)C(=O)Cn1cnc2c(N)ncnc21)NC(=O)[C@H](CCCNC(=N)N)NC(=O)[C@H](CCCNC(=N)N)NC(=O)[C@H](Cc1ccccc1)NC(C)=O)[C@@H](C)CC)[C@@H](C)CC)C(N)=O [TIM 10] (Ac-FRRK(PNA(A))FRLGGGGGGGKDAQNLIGISI-NH2)
- apoptosis of peripheral blood lymphocytes [3]: do not induce apoptosis
- blastogenic response to mitogens [3]: do not drastically limit the blastogenic response
- % Cell Survival ([4]; 100 μM, 24 Hours): 93%
- % Cell Survival ([4]; 100 μM, 48 Hours): 80%
- % Cell Survival ([4]; 100 μM, 72 Hours): 77%
- % Cell Survival ([4]; 500 μM, 24 Hours): 91%
- % Cell Survival ([4]; 500 μM, 48 Hours): 76%
- % Cell Survival ([4]; 500 μM, 72 Hours): 73%
- % Cell Survival ([4]; 1 mM, 24 Hours): 90%
- % Cell Survival ([4]; 1 mM, 48 Hours): 77%
- % Cell Survival ([4]; 1 mM, 72 Hours): 70%
- % Cell Survival ([4]; 5 mM, 24 Hours): 81%
- % Cell Survival ([4]; 5 mM, 48 Hours): 76%
- % Cell Survival ([4]; 5 mM, 72 Hours): 66%

Molecule: RRKKGGKDFVVKR [PRE 1]
- Band Intensity (PKC-β; 75 μg): 0.825
- Inhibition (%) (PKC-β; 75 μg): 28.9%
- Relative Intensity (%) (PKC-β; 75 μg): 71.1%
- Band Intensity (PKC-β; 300 μg): 0.528
- Inhibition (%) (PKC-β; 300 μg): 54.5%
- Relative Intensity (%) (PKC-β; 300 μg): 45.5%
- Band Intensity (PKC-α [1]; 75 μg): 1.040
- Inhibition (%) (PKC-α [1]; 75 μg): 50.2%
- Relative Intensity (%) (PKC-α [1]; 75 μg): 49.8%
- Band Intensity (PKC-α [1]; 300 μg): 0.771
- Inhibition (%) (PKC-α [1]; 300 μg): 63.1%
- Relative Intensity (%) (PKC-α [1]; 300 μg): 36.9%
